For one data set, the system named is K562 cells. Description: In vitro proliferation counterscreen, Mcl-1 insensitive K562. The data set is classed as cell-based. The note with it: Homo sapiens; Mcl-1 insensitive K562; top concentration tested 12.5 µM. As for the experimental part: NCI-H929, A427, and K562 cell lines were obtained from ATCC.
(§1) Suspension cells were plated immediately before compound addition. Adherent cell lines were incubated overnight at 37 °C in a tissue culture incubator prior to compound addition. Compounds were added in triplicates using an HP D300e Digital Dispenser (Hewlett-Packard) or manually at the concentrations indicated and total volumes were normalized using DMSO backfill, with final DMSO concentration of 0.5%. Control wells were treated with DMSO only. Following incubation for 72 or 96 h, a Cell Titer-Glo assay was conducted following the manufacturer recommendations (Promega, G9243) and luminescence was measured using a Victor X5 (PerkinElmer) or a Cytation 3 (Biotek) plate reader. % Viability was defined as relative luminescence units (RLU) of each well divided by the RLU of cells on day 0.
A general note: A counterscreen serves to expose hits that act by an unwanted route or on another target.

For a further data set, the target named is T1, Mcl-1 (Homo sapiens, UniProt Q07820).
T1 construct: Briefly, a previously reported construct was subcloned into an expression vector (pDEST-HisMBP); MBP (from vector pDEST-HisMBP); made in house; host or cells: Escherichia coli BL21 CodonPlus (DE3) RIL
Briefly: TR-FRET binding assay (FITC-Bak peptide competition). From the text: Protein preparation was described previously. Briefly, a previously reported construct was subcloned into an expression vector (pDEST-HisMBP) expressed in Escherichia coli BL21 CodonPlus (DE3) RIL (Stratagene) and purified through nickel-column and size-exclusion chromatography sequentially.
Mixtures containing vehicle without compound served as a negative control, while mixtures containing no protein served as a positive control. […] Two or more repeats were obtained and average K i values are reported.
(TR-FRET usually uses a lanthanide donor and a delayed reading to cut background.)

The nature of data set [1]: Kinetic aqueous solubility. It counts as physicochemical.
A short description of data set [2]: Mouse pharmacokinetic analyses (i.v. and oral). It counts as in vivo. Conditions: plasma, iv. As for the experimental part:
For PK analysis, mice were administered intravenously or orally with compound formulated in 10% ethanol and 10% Cremophor EL. Compound 13 dosing was also screened with 20% Phosphal IPG, 20% Phosphal MCT, 10% HP-β-CD, and 40% HP-β-CD. Plasma samples were obtained at predefined time points and compound concentrations in plasma were measured by quantitative HPLC–MS/MS using an internal standard. Calibration and quality control samples were prepared using blank plasma from untreated animals. Samples were precipitated with acetonitrile and injected into a HPLC system (Agilent 1200). Separation was performed by gradients of 5 mmol/L ammonium acetate pH 5.0 and acetonitrile with 0.1% formic acid on a Luna C8 reversed-phase column with 2.5 μm particles (Phenomenex). The HPLC was interfaced by ESI operated in positive ionization mode to a triple quadrupole mass spectrometer (6500+ Triple Quad System, SCIEX) operated in multiple reaction monitoring mode. Chromatograms were analyzed with Analyst (SCIEX) and pharmacokinetic parameters were calculated by noncompartmental analysis using proprietary software.

The test system of data set [3] is caspase 3/7 in H929 cells. Briefly: Caspase 3/7 induction assay (Caspase-Glo), H929. It counts as cell-based. Conditions: compound treatment for 3 h; for EC50: Homo sapiens, NCI-H929. As for the experimental part: (§2) Cells were treated with a 10-point compound titration and incubated at 37 °C for 3 h.
Another data set relates to NCI-H929 cells. Description: In vitro proliferation assay (CellTiter-Glo), H929. Conditions: Homo sapiens. The data set is classed as cell-based. As for the experimental part:
(§3) NCI-H929, A427, and K562 cell lines were obtained from ATCC. NCI-H929 cells were cultured in RPMI1640 (ATCC-formulated, Catalog No. 30-2001) + 10% fetal calf serum (FCS, GIBCO BRL, Cat. No. 26140) + 0.05 mM mercaptoethanol. A-427 cells were cultured in RPMI1640 (ATCC-formulated, Catalog No. 30-2001) + 10% fetal calf serum (FCS, GIBCO BRL, Cat. No. 26140). K562 cell lines were cultured in Iscove’s Modified Dulbecco Medium (Gibco-formulated, purchased from Thermo-Fisher, Cat. No. 12440-053) + 10% fetal bovine serum (FBS, Sigma-Aldrich, F2442). All cell lines were cultured at 37 °C with 5% CO2 in a humidified incubator and have been regularly tested negatively for mycoplasm contamination.
as §1, with “Cells were seeded at 750–1500 cells per well (depending on growth kinetics) in 384-well plates (Corning, Catalog No. 3707) or at 3000 cells per well in 96-well plates in the respective growth medium and allowed to settle overnight. Suspension cells” for “Suspension cells”, “day 0. Four parameter sigmoidal dose–response curves were generated and IC50 values were determined using XLFit (IDBS) software (eq 205) or in-house software. Drug combination experiments were performed in 96-well or 384-well format and drug synergy was determined using the BLISS model (PMID: 26171228).” for “day 0.”
On the technique in general: Cellular ATP, detected with luciferase, serves as a proxy for viable cell number.

The subject of the next data set is A427 cells. Briefly: In vitro proliferation assay (CellTiter-Glo), A427. It counts as cell-based. The note with it: Homo sapiens, A-427. As for the experimental part: as §3
as §1, with “Cells were seeded at 750–1500 cells per well (depending on growth kinetics) in 384-well plates (Corning, Catalog No. 3707) or at 3000 cells per well in 96-well plates in the respective growth medium and allowed to settle overnight. Suspension cells” for “Suspension cells”, “day 0. Four parameter sigmoidal dose–response curves were generated and IC50 values were determined using XLFit (IDBS) software (eq 205) or in-house software. Drug combination experiments were performed in 96-well or 384-well format and drug synergy was determined using the BLISS model (PMID: 26171228).” for “day 0.”

In data set [4] the test system is caspase 3/7 in K562 cells. Description: Caspase 3/7 induction assay (Caspase-Glo), K562. It counts as cell-based. The note with it: compound treatment for 3 h; for EC50: Homo sapiens, K562. As for the experimental part: as §2
Data set [5] has as its system caspase 3/7 in A427 cells. Description: Caspase 3/7 induction assay (Caspase-Glo), A427. The data set is classed as cell-based. The note with it: compound treatment for 3 h; for EC50: Homo sapiens, A-427. As for the experimental part: as §2
Where [6] appears, read: in the presence of 1% fetal bovine serum, average of at least n = 2, read-out: TRFRET, Mcl-1 Ki.
Where [7] appears, read: supplementary CSV, unit inferred, read-out: Ki TRFRET.
The mark [8] stands for this setting: dosed at 20 mg/kg, read-out: i.v. mouse CL.
Where [9] appears, read: supplementary CSV, unit not given (Table 1: 20 mg/kg, 14 and 16 at 10 mg/kg), read-out: CL.
Setting [10] is: H929 cell line, average of at least n = 2, triplicate.
Setting [11] is: A427 cell line, average of at least n = 2, triplicate.
[12] abbreviates: supplementary CSV, unit inferred.

This note sets out measurements from PMC12434668 (Journal of Medicinal Chemistry, 2025).

The structures appear in SMILES notation. Converted amounts (≈) assume the structure as drawn. “And” between values parts separate entries of the source, which are not always exact repeats. Equal entries are not always repeated. Where two headings read alike, the source gives them in different places. A value given as a limit tells only on which side of the number the result lay.

Usually GI50 stands for the concentration giving 50% growth inhibition. The term Ki denotes a dissociation constant, usually derived from enzyme kinetics or from competition with a known ligand. Broadly, the kinetic solubility is solubility judged after dilution from a stock solution rather than from solid. A word on the EC50: it is the concentration needed to bring the measured effect to its halfway point.

T1 sequence (Q07820 whole entry): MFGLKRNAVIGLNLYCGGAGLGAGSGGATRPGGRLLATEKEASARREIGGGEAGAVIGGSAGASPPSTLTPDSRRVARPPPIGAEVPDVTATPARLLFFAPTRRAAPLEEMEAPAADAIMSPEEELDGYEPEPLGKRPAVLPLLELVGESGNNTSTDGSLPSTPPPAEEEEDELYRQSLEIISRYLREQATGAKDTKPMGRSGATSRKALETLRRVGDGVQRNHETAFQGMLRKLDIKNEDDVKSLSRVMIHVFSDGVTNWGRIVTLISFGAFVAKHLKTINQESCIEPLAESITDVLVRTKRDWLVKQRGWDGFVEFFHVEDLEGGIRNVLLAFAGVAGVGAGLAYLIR

In the case of `COc1cc2c3c(cc(C(=O)O)n3CCCOCc3nn(C)cc3-c3c(Cl)ccc4c(CCCOc5cc(C)c(Cl)c(C)c5)c5n(c34)[C@H](C)CN2C5=O)c1C` [Compound 17, (2^63^4 S a ,1^72^2 R a ,2^4 R)-2^7-Chloro-2^10-(3-(4-chloro-3,5-dimethylphenoxy)propyl)-1^5-methoxy-1^4,2^4,3^1-trimethyl-2^1-oxo-2^1,2^2,2^3,2^4-tetrahydro-1^1 H,3^1 H-5-oxa-2(2,6)-pyrazino[1,2-a]indola-1(7,1)-indola-3(4,3)-pyrazolacyclooctaphane-1^2-carboxylic Acid], the GI50 was over 12500 nM in the data set with K562 cells, 23 ± 5 nM in the data set with NCI-H929 cells (setting [10]) and 32 ± 7 nM with A427 cells (setting [11]). The Ki is under 0.08 nM on Mcl-1 (setting [6]) and under 0.02 nM at Mcl-1 (setting [7]). In [1] (aqueous medium, pH 6.8, pH 6.8), this compound yielded a solubility (kinetic) of 39 µg/mL (≈ 49.7 µM). Moreover, the clearance in data set [2] (setting [8]) and in data set [2] (setting [9]) was 5.7 mL/min/kg each time. The half-maximal effective concentration (EC50) in data set [3] was 16 nM; in [4], over 3120 nM; in data set [5], 12 nM. Further, the “H929 Caspase 3/7 maximum activity, fold over vehicle (FoV)” value (“H929 Caspase 3/7 maximum activity, fold” below) in data set [3] was 16 fold and 16 (16) fold. For the same compound, in data set [4], the “K562 Caspase 3/7 fold over vehicle (FoV)” value came out at 1.3 fold. For the same compound, in data set [5], the “A427 Caspase 3/7 fold over vehicle (FoV)” value was determined as 16 fold.
Regarding `COCCOc1cc2c3c(cc(C(=O)O)n3CCCOCc3nn(C)cc3-c3c(Cl)ccc4c(CCCOc5cc(C)c(Cl)c(C)c5)c5n(c34)[C@H](C)CN2C5=O)c1OC` [Compound 19, (2^63^4 S a ,1^72^2 R a ,2^4 R)-2^7-Chloro-2^10-(3-(4-chloro-3,5-dimethylphenoxy)propyl)-1^4-methoxy-1^5-(2-methoxyethoxy)-2^4,3^1-dimethyl-2^1-oxo-2^1,2^2,2^3,2^4-tetrahydro-1^1 H,3^1 H-5-oxa-2(2,6)-pyrazino[1,2-a]indola-1(7,1)-indola-3(4,3)-pyrazolacyclooctaphane-1^2-carboxylic Acid], the GI50 with K562 cells was over 11200 nM; with NCI-H929 cells (setting [10]), 10 ± 3 nM; with A427 cells (setting [11]) it was 18 ± 6 nM. Moreover, the inhibitory constant (Ki) on Mcl-1 (setting [6]) was under 0.08 nM; at Mcl-1 (setting [7]), under 0.02 nM. In addition, the clearance in data set [2] (setting [8]) and in data set [2] (setting [9]) was 19.8 mL/min/kg throughout. Also, the values for the concentration for a half-maximal effect (EC50) in data set [3], in [4] and in data set [5] were 11 nM, over 3120 nM and 13 nM, respectively. Moreover, the “H929 Caspase 3/7 maximum activity, fold” value in data set [3] is 16 fold. The “K562 Caspase 3/7 fold over vehicle (FoV)” value in data set [4] came to 1.4 fold. Further, in [5], the “A427 Caspase 3/7 fold over vehicle (FoV)” value was 14 fold.
With `COc1cc2c3c(cc(C(=O)O)n3CCCOCc3nn(C)c(C)c3-c3c(Cl)ccc4c(CCCOc5cc(C)c(Cl)c(C)c5)c5n(c34)[C@H](C)CN2C5=O)c1OC` [Compound 10, (2^63^4 S a ,1^72^2 R a ,2^4 R)-2^7-Chloro-2^10-(3-(4-chloro-3,5-dimethylphenoxy)propyl)-1^4,1^5-dimethoxy-2^4,3^1,3^5-trimethyl-2^1-oxo-2^1,2^2,2^3,2^4-tetrahydro-1^1 H,3^1 H-5-oxa-2(2,6)-pyrazino[1,2-a]indola-1(7,1)-indola-3(4,3)-pyrazolacyclooctaphane-1^2-carboxylic Acid], the GI50 is over 9700 nM in the data set on K562 cells, 20 nM in the data set with NCI-H929 cells (setting [12]) and 48 nM with A427 cells (setting [12]). Also, the Ki on Mcl-1 (setting [6]) was found to be 0.08 ± 0.01 nM. The compound further had a kinetic solubility in data set [1] (aqueous medium at pH 6.8, pH 6.8) of 2 µg/mL (≈ 2.45 µM). Besides, the clearance in data set [2] (setting [8]) and in [2] (setting [9]) was 6.6 mL/min/kg in each case. Besides, the EC50 was 9 nM in data set [3], over 3120 nM in data set [4] and 11 nM in data set [5]. In [3], the “H929 Caspase 3/7 maximum activity, fold” value came to 16 fold. The “K562 Caspase 3/7 fold over vehicle (FoV)” value in data set [4] came out at 1.4 fold. The “A427 Caspase 3/7 fold over vehicle (FoV)” value in [5] stood at 13 fold.
`COc1cc2c3c(cc(C(=O)O)n3CCCOCc3ccncc3-c3c(Cl)ccc4c(CCCOc5cc(C)c(Cl)c(C)c5)c5n(c34)[C@H](C)CN2C5=O)c1OC` [Compound 22, (2^63^4 S a ,1^72^2 R a ,2^4 R)-2^7-Chloro-2^10-(3-(4-chloro-3,5-dimethylphenoxy)propyl)-1^4,1^5-dimethoxy-2^4-methyl-2^1-oxo-2^1,2^2,23,24-tetrahydro-11H-5-oxa-2(2,6)-pyrazino[1,2-a]indola-1(7,1)-indola-3(3,4)-pyridinacyclooctaphane-1^2-carboxylic Acid]: the figures for the GI50 in the data set with K562 cells, with NCI-H929 cells (setting [10]) and in the data set on A427 cells (setting [11]) were over 12500 nM, 29 ± 6 nM and 58 ± 4 nM, respectively. On Mcl-1 (setting [6]), the Ki came to 0.08 ± 0.01 nM. Further, the kinetic solubility in [1] (aqueous medium, pH 6.8) turned out to be 11 µg/mL (≈ 13.8 µM). The clearance in [2] (setting [8]) and in [2] (setting [9]) was 3.5 mL/min/kg in each case.
